Results published in patent US20260166039A1 (SCHRÖDINGER, INC., priority 2022, published 2026).
Read-outs that look alike come from different tables or passages of the source.

Key:
Wee1 kinase domain = biological target: T1, Wee1 kinase domain (Homo sapiens, UniProt P30291); assay: Wee1 Kinase Biochemical Assay (ADP-Glo); details: 15 uM ATP
T1 construct: Wee1 kinase domain was purchased from Carna (catalog #05-177); purchased Carna 05-177
In short: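 Compounds tested against 1 nM Wee1 kinase domain in Tris buffer containing 20 mM MgCl2, BSA and 2 mM DTT, with 15 uM ATP and poly(Lys,Tyr) substrate for 4 h at 25 °C. Luminescent ADP detection gave percent inhibition, normalized to DMSO and saturating inhibitor.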

[1] = tested on: phosphorylation of Cdc2 Y15 (Wee1 substrate) in A427 cells; assay: Phosphorylated Cdc2 MSD Electrochemiluminescence Assay; assay type: cell-based; details: Homo sapiens
In short: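 Read-out: percent residual phospho-Cdc2 Y15 relative to DMSO and positive-control Wee1 inhibitor, measured by MSD electrochemiluminescence capture/detection antibody assay in cell lysates. A427 cells received duplicate 3-fold compound dilution series 20 h post-seeding, with 6 h total incubation at 37 °C.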

[2] = class symbols, 1 nM Wee1 enzyme, 4 hours at 25° C.
[3] = A-427, class symbols, read-out: A427 pCDC2 MSD IC50

T1 sequence (P30291 299-569 limits assumed): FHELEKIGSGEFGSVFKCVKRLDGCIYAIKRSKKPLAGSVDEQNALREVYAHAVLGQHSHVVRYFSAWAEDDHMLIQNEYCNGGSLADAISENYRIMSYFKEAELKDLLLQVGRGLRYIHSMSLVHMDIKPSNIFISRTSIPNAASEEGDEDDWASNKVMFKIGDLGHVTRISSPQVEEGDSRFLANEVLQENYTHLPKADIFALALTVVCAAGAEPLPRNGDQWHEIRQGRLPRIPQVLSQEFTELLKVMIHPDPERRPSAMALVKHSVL

Row | Structure (SMILES) | IC50 (Wee1 kinase domain; [2]) [nM] | IC50 [1, 3] [nM] | IC50 (Wee1 kinase domain; Wee1 kinase domain, ADP-Glo) [nM] | IC50 ([1]; A-427, pCDC2 MSD) [nM]
1 | Cn1ccc(Nc2ncc3c(n2)N(c2cccc(P(C)(C)=O)n2)[C@@H]2CC(C)(C)OC[C@]32C)cc1=O (single isomer, unassigned) [Example 779] | < 10 | < 100 |  | 
2 | CNCc1cccc(N2c3nc(Nc4ccc(S(C)(=O)=O)cc4)ncc3[C@@]3(C)COC(C)(C)C[C@@H]23)n1 (single isomer, unassigned) [Example 34] |  |  | < 10 | 100 to 1000
3 | CNCc1cccc(N2c3nc(Nc4ccc(-n5nccn5)cc4)ncc3[C@@]3(C)COC(C)(C)C[C@@H]23)n1 (single isomer, unassigned) [Example 767] | < 10 | 100 to 1000 |  | 
4 | CN1Cc2cc(Nc3ncc4c(n3)N(c3cccc(N=S(C)(C)=O)n3)[C@@H]3CC(C)(C)OC[C@]43C)ccc2C(C)(C)C1 (single isomer, unassigned) [Example 135] |  |  | < 10 | < 100
5 | CN1C[C@H]2C[C@@H]1CN2c1ccc(Nc2ncc3c(n2)N(c2cccc(N=S(C)(C)=O)n2)[C@@H]2CC(C)(C)OC[C@]32C)cc1 (single isomer, unassigned) [Example 122] |  |  | < 10 | < 100
6 | CC1(C)C[C@H]2N(c3cccc(N=S(C)(C)=O)n3)c3nc(NC(=O)C4CC4)ncc3[C@@]2(C)CO1 (single isomer, unassigned) [Example 399] | < 10 | 100 to 1000 |  | 
7 | CN1CC[C@@H]2CN(c3ccc(Nc4ncc5c(n4)N(c4cccc(N=S(C)(C)=O)n4)[C@@H]4CC(C)(C)OC[C@]54C)cc3)C[C@@H]21 (single isomer, unassigned) [Example 502] | < 10 | < 100 |  | 
8 | Cc1cc(Nc2ncc3c(n2)N(c2cccc(N=S(C)(C)=O)n2)[C@@H]2CC(C)(C)OC[C@]32C)ccc1C1CCN(C)CC1 (single isomer, unassigned) [Example 104] |  |  | < 10 | < 100
9 | CC1(C)C[C@H]2N(c3cccc(N=S(C)(C)=O)n3)c3nc(Nc4cn(C5COC5)cn4)ncc3[C@@]2(C)CO1 (single isomer, unassigned) [Example 232] |  |  | < 10 | 1000 to 10000
10 | CNCc1cccc(N2c3nc(NC(=O)[C@@H]4C[C@H]4c4ccccc4)ncc3[C@@]3(C)COC(C)(C)C[C@@H]23)n1 [Example 760, (1R,2R)-2-phenyl-N-((4bR,8aR)-4b,7,7-trimethyl-9-(6-((methylamino)methyl)pyridin-2-yl)-4b,5,7,8,8a,9-hexahydropyrano[3′,4′:4,5]pyrrolo[2,3-d]pyrimidin-2-yl)cyclopropane-1-carboxamide] | < 10 | 100 to 1000 |  | 
11 | CN1C[C@@H]2C[C@H]1CN2c1ccc(Nc2ncc3c(n2)N(c2cccc(C(C)(C)O)n2)[C@@H]2CC(C)(C)OC[C@]32C)cc1Cl (single isomer, unassigned) [Example 435] | < 10 | 100 to 1000 |  | 
12 | CN1CC[C@@H](Oc2ccc(Nc3ncc4c(n3)N(c3cccc(C(C)(C)O)n3)C3CC(C)(C)OCC43C)cc2)C1 (stereo in doubt) [Example 423, 2-(6-((4bR,8aR)-4b,7,7-trimethyl-2-((4-(((R)-1-methylpyrrolidin-3-yl)oxy)phenyl)amino)-4b,7,8,8a-tetrahydropyrano[3′,4′:4,5]pyrrolo[2,3-d]pyrimidin-9(5H)-yl)pyridin-2-yl)propan-2-ol] | < 10 | 100 to 1000 |  | 
13 | CN1[C@@H]2C[C@H]1CN(c1ccc(Nc3ncc4c(n3)N(c3cccc(C(C)(C)O)n3)[C@@H]3CC(C)(C)OC[C@]43C)cc1)C2 (single isomer, unassigned) [Example 441] | < 10 | 100 to 1000 |  | 
14 | Cc1cc(Nc2ncc3c(n2)N(c2cccc(N=S(C)(C)=O)n2)[C@@H]2CC(C)(C)OC[C@]32C)ccc1[C@H]1COCCN1 (single isomer, unassigned) [Example 120] |  |  | < 10 | < 100
15 | CN1CCC(c2ccc(Nc3ncc4c(n3)N(c3cccc(N=S(C)(C)=O)c3)[C@@H]3CC(C)(C)OC[C@]43C)cn2)CC1 [Example 710, dimethyl((3-((4bR,8aR)-4b,7,7-trimethyl-2-((6-(1-methylpiperidin-4-yl)pyridin-3-yl)amino)-4b,7,8,8a-tetrahydropyrano[3′,4′:4,5]pyrrolo[2,3-d]pyrimidin-9(5H)-yl)phenyl)imino)-16-sulfanone] | < 10 | 1000 to 10000 |  | 
16 | CC(C)n1ccc(N2c3nc(Nc4ccc(N5CCN(C)CC5)cc4)ncc3[C@@]3(C)COC(C)(C)C[C@@H]23)n1 (single isomer, unassigned) [Example 721] | < 10 | 100 to 1000 |  | 
17 | CC1(C)C[C@H]2N(c3cccc(N=S(C)(C)=O)n3)c3nc(Nc4ccc(N5CCOCC5)nc4)ncc3[C@@]2(C)CO1 (single isomer, unassigned) [Example 493] | < 10 | 100 to 1000 |  | 

Row | Structure (SMILES) | IC50 (Wee1 kinase domain; [2]) [nM] | IC50 [1, 3] [nM] | IC50 (Wee1 kinase domain; Wee1 kinase domain, ADP-Glo) [nM] | IC50 ([1]; A-427, pCDC2 MSD) [nM]
18 | CNCc1cccc(N2c3nc(Nc4ccc([C@@H]5CC(=O)N(C)C5)cc4)ncc3[C@@]3(C)COC(C)(C)C[C@@H]23)n1 (single isomer, unassigned) [Example 69] |  |  | < 10 | < 100
19 | CN1CC[C@H](n2ccc(Nc3ncc4c(n3)N(c3cccc(N=S(C)(C)=O)n3)[C@@H]3CC(C)(C)OC[C@]43C)n2)C1 (single isomer, unassigned) [Example 225] |  |  | < 10 | 1000 to 10000
20 | CN1CCc2ccc(Nc3ncc4c(n3)N(c3cccc(N=S(C)(C)=O)n3)[C@@H]3CC(C)(C)OC[C@]43C)cc2C1 (single isomer, unassigned) [Example 109] |  |  | < 10 | < 100
21 | Cc1cc(Nc2ncc3c(n2)N(c2cccc(N4C(=O)OC[C@@H]4C)n2)[C@@H]2CC(C)(C)OC[C@]32C)ccc1O[C@@H]1CCNC1 (single isomer, unassigned) [Example 337] |  |  | < 10 | 100 to 1000
22 | CN1C[C@@H]2C[C@H]1CN2c1ccc(Nc2ncc3c(n2)N(c2cccc(N=S(C)(C)=O)n2)[C@@H]2CC(C)(C)OC[C@]32C)cc1F (single isomer, unassigned) [Example 180] |  |  | < 10 | 100 to 1000
23 | CC1(C)C[C@H]2N(c3cccc(N4CCCC4=O)n3)c3nc(Nc4ccc([C@H]5CCNC5)cc4)ncc3[C@@]2(C)CO1 [Example 636, 1-(6-((4bR,8aR)-4b,7,7-trimethyl-2-((4-((R)-pyrrolidin-3-yl)phenyl)amino)-4b,7,8,8a-tetrahydropyrano[3′,4′:4,5]pyrrolo[2,3-d]pyrimidin-9(5H)-yl)pyridin-2-yl)pyrrolidin-2-one] | < 10 | 100 to 1000 |  | 
24 | CNCc1cccc(N2c3nc(Nc4cnn(C)c4)ncc3[C@@]3(C)COC(C)(C)C[C@@H]23)n1 (single isomer, unassigned) [Example 472] | < 10 | 100 to 1000 |  | 
25 | CN1CCC(c2ncc(Nc3ncc4c(n3)N(c3cccc(N=S(C)(C)=O)n3)[C@@H]3CC(C)(C)OC[C@]43C)s2)CC1 (single isomer, unassigned) [Example 221] |  |  | < 10 | < 100
26 | CNCc1cccc(N2c3nc(Nc4ccc(N5CCOCC5)c(Cl)c4)ncc3[C@@]3(C)COC(C)(C)C[C@@H]23)n1 (single isomer, unassigned) [Example 14] |  |  | < 10 | 100 to 1000
27 | C[C@H]1COC(=O)N1c1cccc(N2c3nc(Nc4ccn(C5CCN(C)CC5)c(=O)c4)ncc3[C@@]3(C)COC(C)(C)C[C@@H]23)n1 (single isomer, unassigned) [Example 273] |  |  | < 10 | 100 to 1000
28 | CNCc1cccc(N2c3nc(Nc4ccn([C@H]5CCOC5)c(=O)c4)ncc3[C@@]3(C)COC(C)(C)C[C@@H]23)n1 (single isomer, unassigned) [Example 389] |  |  | < 10 | 1000 to 10000
29 | CN1CC2(C1)CN(c1ccc(Nc3ncc4c(n3)N(c3cccc(C(C)(C)O)n3)[C@@H]3CC(C)(C)OC[C@]43C)cc1)C2 (single isomer, unassigned) [Example 443] | < 10 | 100 to 1000 |  | 
30 | CNCc1cccc(N2c3nc(Nc4ccc(N5CCC(F)(F)CC5)cc4)ncc3[C@@]3(C)COC(C)(C)C[C@@H]23)n1 (single isomer, unassigned) [Example 16] |  |  | < 10 | 100 to 1000
31 | CN[C@H]1CCc2ccc(N3c4nc(Nc5ccc(N6CCOCC6)cc5)ncc4C4(C)COC(C)(C)CC34)nc21 (stereo in doubt) [Example 551, (4bR,8aR)-4b,7,7-trimethyl-9-((S)-7-(methylamino)-6,7-dihydro-5H-cyclopenta[b]pyridin-2-yl)-N-(4-morpholinophenyl)-4b,5,7,8,8a,9-hexahydropyrano[3′,4′:4,5]pyrrolo[2,3-d]pyrimidin-2-amine] | < 10 | < 100 |  | 
32 | CN1CC[C@H](n2cc(Nc3ncc4c(n3)N(c3cccc(N=S(C)(C)=O)n3)[C@@H]3CC(C)(C)OC[C@]43C)cn2)C1 (single isomer, unassigned) [Example 198] |  |  | < 10 | 100 to 1000
33 | CN1CC[C@H](Oc2ccc(Nc3ncc4c(n3)N(c3cccc(N5CCCC5=O)n3)[C@@H]3CC(C)(C)OC[C@]43C)cc2)C1 [Example 618, 1-(6-((4bR,8aR)-4b,7,7-trimethyl-2-((4-(((S)-1-methylpyrrolidin-3-yl)oxy)phenyl)amino)-4b,7,8,8a-tetrahydropyrano[3′,4′:4,5]pyrrolo[2,3-d]pyrimidin-9(5H)-yl)pyridin-2-yl)pyrrolidin-2-one] | < 10 | < 100 |  | 
34 | CN1C[C@H]2C[C@@H]1CN2c1ccc(Nc2ncc3c(n2)N(c2cccc(N4CCOC4=O)n2)[C@@H]2CC(C)(C)OC[C@]32C)cc1 (single isomer, unassigned) [Example 593] | < 10 | 100 to 1000 |  | 
